Assay results taken from patent publication US7674819B2 (Warner-Lambert Company LLC, priority 2005, dated 2010).
Positions count from the first letter of the chain named. Read-outs that look alike come from different tables or passages of the source. Each block holds one compound with its values, some of them ahead of it.

Columns and labels:
androgen receptor = target: T1, androgen receptor (Homo sapiens, UniProt P10275); assay: AR Antagonist Cell Assay (MDA-MB453-MMTV clone 54-19, luciferase reporter); type: cell-based; settings: inhibition of induction by DHT (final concentration at 100 μM), 17 hr, compound 0.32-1000 nM, mean of multiple tests
T1 sequence (P10275 1-920 Q868H): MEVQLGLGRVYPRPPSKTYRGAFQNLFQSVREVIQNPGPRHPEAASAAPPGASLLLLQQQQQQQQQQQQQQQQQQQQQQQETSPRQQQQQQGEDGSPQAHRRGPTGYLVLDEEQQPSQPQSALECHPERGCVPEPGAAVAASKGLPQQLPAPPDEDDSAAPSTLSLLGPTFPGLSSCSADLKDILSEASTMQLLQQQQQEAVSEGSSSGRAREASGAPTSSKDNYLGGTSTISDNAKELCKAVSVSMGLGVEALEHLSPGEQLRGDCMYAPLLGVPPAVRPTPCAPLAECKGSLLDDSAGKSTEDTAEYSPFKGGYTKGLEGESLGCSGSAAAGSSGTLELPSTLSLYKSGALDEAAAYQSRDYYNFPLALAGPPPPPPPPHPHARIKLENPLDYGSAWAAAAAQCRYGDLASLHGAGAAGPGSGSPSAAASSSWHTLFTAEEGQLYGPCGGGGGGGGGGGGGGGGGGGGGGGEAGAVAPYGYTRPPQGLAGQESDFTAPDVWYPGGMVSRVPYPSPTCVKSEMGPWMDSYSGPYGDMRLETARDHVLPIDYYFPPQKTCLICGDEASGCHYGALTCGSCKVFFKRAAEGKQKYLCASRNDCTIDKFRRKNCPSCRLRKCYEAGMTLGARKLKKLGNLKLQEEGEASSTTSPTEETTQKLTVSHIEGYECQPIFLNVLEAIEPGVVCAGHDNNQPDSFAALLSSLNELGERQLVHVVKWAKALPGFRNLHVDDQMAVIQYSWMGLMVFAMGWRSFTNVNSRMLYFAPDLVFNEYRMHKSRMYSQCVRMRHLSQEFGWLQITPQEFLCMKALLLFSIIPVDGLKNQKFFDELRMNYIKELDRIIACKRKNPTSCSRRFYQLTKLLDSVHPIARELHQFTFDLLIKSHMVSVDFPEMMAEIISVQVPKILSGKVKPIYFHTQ
Outline: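 MDA-MB453 breast tumour cells stably carrying an ARE-containing MMTV promoter driving firefly luciferase, plated overnight at 37° C in charcoal-treated serum medium. DHT added (final […]) and incubated 17 hr at 37° C. Luminescence read after adding luciferase buffer; values are means of multiple tests.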

hAR = target: T2, hAR (Homo sapiens, UniProt P10275); assay: Competitive binding of 3H-DHT to baculovirus/Sf9 generated hAR extracts; settings: one hour at 4° C., mean of multiple tests
T2 sequence (P10275 1-920): T1 sequence (P10275 1-920 Q868H) with H868Q
Outline: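 Baculovirus/Sf9-expressed hAR extract incubated with test compound, hydroxylapatite and 1 nM 3H-DHT tracer for 1 h at 4° C, then washed free of unbound tracer. Affinity given as concentration inhibiting half of maximal 3H-DHT binding.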

[1] = concentration at which one half of maximum binding of 1 nM 3H-DHT to hAR is inhibited, read-out: IC50
[2] = IC50, concentration at which one half of maximum binding of 1 nM 3H-DHT to hAR is inhibited

Compound: Cc1ccsc1S(=O)(=O)N1CC(C)(C)C(Oc2ccc(C#N)c(C(F)(F)F)c2)C1=O (stereo not shown) [Example 87, 4-[4,4-Dimethyl-1-(3-methyl-thiophene-2-sulfonyl)-2-oxo-pyrrolidin-3-yloxy]-2-trifluoromethyl-benzonitrile]
- IC50 (androgen receptor; read-out: IC50): 502 nM
- IC50 (hAR; [1]): 115 nM

Compound: CC1(C)CN(S(=O)(=O)c2cccc(C#N)c2)C(=O)C1Oc1ccc(C#N)c(C(F)(F)F)c1 (stereo not shown) [Example 88, 4-[1-(3-Cyano-benzenesulfonyl)-4,4-dimethyl-2-oxo-pyrrolidin-3-yloxy]-2-trifluoromethyl-benzonitrile]
- IC50 (androgen receptor; read-out: IC50): 134 nM
- IC50 (hAR; [1]): 110 nM

Compound: CC1(C)CN(S(=O)(=O)c2cccs2)C(=O)C1Oc1ccc(C#N)c(C(F)(F)F)c1 (stereo not shown) [Example 93, 4-[4,4-Dimethyl-2-oxo-1-(thiophene-2-sulfonyl)-pyrrolidin-3-yloxy]-2-trifluoromethyl-benzonitrile]
- IC50 (androgen receptor; read-out: IC50): > 1000 nM
- IC50 (hAR; [2]): 82 nM

Compound: Cc1ccccc1S(=O)(=O)N1CC(C)(C)C(Oc2ccc(C#N)c(C(F)(F)F)c2)C1=O (stereo not shown) [Example 94, 4-[4,4-Dimethyl-2-oxo-1-(toluene-2-sulfonyl)-pyrrolidin-3-yloxy]-2-trifluoromethyl-benzonitrile]
- IC50 (androgen receptor; read-out: IC50): > 1000 nM
- IC50 (hAR; [1]): 150 nM

Compound: CC1(C)CN(S(=O)(=O)c2cccc(O)c2)C(=O)C1Oc1ccc(C#N)c(C(F)(F)F)c1 (stereo not shown) [Example 95, 4-[1-(3-Hydroxy-benzenesulfonyl)-4,4-dimethyl-2-oxo-pyrrolidin-3-yloxy]-2-trifluoromethyl-benzonitrile]
- IC50 (androgen receptor; read-out: IC50): > 1000 nM
- IC50 (hAR; [2]): 8 nM

Compound: CC1(C)CN(C2CCCC2)C(=O)C1Oc1ccc(C#N)c(C(F)(F)F)c1 (stereo not shown) [Example 98, 4-(1-Cyclopentyl-4,4-dimethyl-2-oxo-pyrrolidin-3-yloxy)-2-trifluoromethyl-benzonitrile]
- IC50 (androgen receptor; read-out: IC50): 315 nM
- IC50 (hAR; [1]): 169 nM

Compound: CSCN1CC(C)(C)C(Oc2ccc(C#N)c(C(F)(F)F)c2)C1=O (stereo not shown) [Example 99, 4-(4,4-Dimethyl-1-methylsulfanylmethyl-2-oxo-pyrrolidin-3-yloxy)-2-trifluoromethyl-benzonitrile]
- IC50 (androgen receptor): 36 nM
- IC50 (hAR; [1]): 113 nM

Compound: CC1(C)CN(C(=O)Cc2ccccc2)C(=O)C1Oc1ccc(C#N)c(C(F)(F)F)c1 (stereo not shown) [Example 101, 4-(4,4-Dimethyl-2-oxo-1-phenylacetyl-pyrrolidin-3-yloxy)-2-trifluoromethyl-benzonitrile]
- IC50 (androgen receptor; read-out: IC50): 83 nM
- IC50 (hAR; [1]): 174 nM

Compound: CC1(C)CN(C(=O)c2ccc(C#N)cc2)C(=O)C1Oc1ccc(C#N)c(C(F)(F)F)c1 (stereo not shown) [Example 104, 4-[1-(4-Cyano-benzoyl)-4,4-dimethyl-2-oxo-pyrrolidin-3-yloxy]-2-trifluoromethyl-benzonitrile]
- IC50 (androgen receptor): 37 nM
- IC50 (hAR; [1]): 248 nM

Compound: CC1(C)CN(C(=O)c2cccc(C#N)c2)C(=O)C1Oc1ccc(C#N)c(C(F)(F)F)c1 (stereo not shown) [Example 107, 4-[1-(3-Cyano-benzoyl)-4,4-dimethyl-2-oxo-pyrrolidin-3-yloxy]-2-trifluoromethyl-benzonitrile]
- IC50 (androgen receptor; read-out: IC50): 653 nM
- IC50 (hAR; [2]): 68 nM

Compound: COc1cc(OC2C(=O)N(C(C)c3ccccc3)CC2(C)C)ccc1C#N (stereo not shown) [Example 110, 4-[4,4-Dimethyl-2-oxo-1-(1-phenyl-ethyl)-pyrrolidin-3-yloxy]-2-methoxy-benzonitrile]
- IC50 (androgen receptor; read-out: IC50): 126 nM
- IC50 (hAR; [2]): 87 nM

Compound: CC1(C)CN(Cc2nnc(-c3ccccc3O)o2)C(=O)C1Oc1ccc(C#N)c(C(F)(F)F)c1 (stereo not shown) [Example 112, 4-{1-[5-(2-Hydroxy-phenyl)-[1,3,4]oxadiazol-2-ylmethyl]-4,4-dimethyl-2-oxo-pyrrolidin-3-yloxy}-2-trifluoromethyl-benzonitrile]
- IC50 (androgen receptor; read-out: IC50): 198 nM
- IC50 (hAR; [2]): 85 nM

Compound: CC1(C)CN(Cc2nnc(-c3cccc(O)c3)o2)C(=O)C1Oc1ccc(C#N)c(C(F)(F)F)c1 (stereo not shown) [Example 113, 4-{1-[5-(3-Hydroxy-phenyl)-[1,3,4]oxadiazol-2-ylmethyl]-4,4-dimethyl-2-oxo-pyrrolidin-3-yloxy)-2-trifluoromethyl-benzonitrile]
- IC50 (androgen receptor; read-out: IC50): 651 nM
- IC50 (hAR; [1]): 224 nM

Compound: CC1(C)CN(Cc2nnc(-c3ccc(O)cc3)o2)C(=O)C1Oc1ccc(C#N)c(C(F)(F)F)c1 (stereo not shown) [Example 114, 4-{1-[5-(4-Hydroxy-phenyl)-[1,3,4]oxadiazol-2-ylmethyl]-4,4-dimethyl-2-oxo-pyrrolidin-3-yloxy}-2-trifluoromethyl-benzonitrile]
- IC50 (androgen receptor; read-out: IC50): 656 nM
- IC50 (hAR; [2]): 41 nM

- IC50 (androgen receptor; read-out: IC50): 415 nM
- IC50 (hAR; [1]): 142 nM
Compound: CC1(C)CN(Cc2nnc(-c3cccc(F)c3)o2)C(=O)C1Oc1ccc(C#N)c(C(F)(F)F)c1 (stereo not shown) [Example 115, 4-{1-[5-(3-Fluoro-phenyl)-[1,3,4]oxadiazol-2-ylmethyl]-4,4-dimethyl-2-oxo-pyrrolidin-3-yloxy}-2-trifluoromethyl-benzonitrile]

Compound: CC1(C)CN(Cc2nnc(-c3ccc(F)cc3)o2)C(=O)C1Oc1ccc(C#N)c(C(F)(F)F)c1 (stereo not shown) [Example 116, 4-{1-[5-(4-Fluoro-phenyl)-[1,3,4]oxadiazol-2-ylmethyl]-4,4-dimethyl-2-oxo-pyrrolidin-3-yloxy}-2-trifluoromethyl-benzonitrile]
- IC50 (androgen receptor; read-out: IC50): 369 nM
- IC50 (hAR; [1]): 206 nM

Compound: Cc1ccc(-c2nnc(CN3CC(C)(C)C(Oc4ccc(C#N)c(C(F)(F)F)c4)C3=O)o2)s1 (stereo not shown) [Example 117, 4-{4,4-Dimethyl-1-[5-(5-methyl-thiophen-2-yl)-[1,3,4]oxadiazol-2-ylmethyl]-2-oxo-pyrrolidin-3-yloxy}-2-trifluoromethyl-benzonitrile]
- IC50 (androgen receptor; read-out: IC50): 117 nM
- IC50 (hAR; [1]): 259 nM

Compound: COc1cccc(-c2nnc(CN3CC(C)(C)C(Oc4ccc(C#N)c(C(F)(F)F)c4)C3=O)o2)c1 (stereo not shown) [Example 118, 4-{1-[5-(3-Methoxy-phenyl)-[1,3,4]oxadiazol-2-ylmethyl]-4,4-dimethyl-2-oxo-pyrrolidin-3-yloxy}-2-trifluoromethyl-benzonitrile]
- IC50 (androgen receptor; read-out: IC50): 381 nM
- IC50 (hAR; [1]): 170 nM

Compound: COc1ccc(-c2nnc(CN3CC(C)(C)C(Oc4ccc(C#N)c(C(F)(F)F)c4)C3=O)o2)cc1 (stereo not shown) [Example 119, 4-{1-[5-(4-Methoxy-phenyl)-[1,3,4]oxadiazol-2-ylmethyl]-4,4-dimethyl-2-oxo-pyrrolidin-3-yloxy}-2-trifluoromethyl-benzonitrile]
- IC50 (androgen receptor; read-out: IC50): 199 nM
- IC50 (hAR; [2]): 80 nM

Compound: COc1ccccc1-c1nnc(CN2CC(C)(C)C(Oc3ccc(C#N)c(C(F)(F)F)c3)C2=O)o1 (stereo not shown) [Example 121, 4-{1-[5-(2-Methoxy-phenyl)-[1,3,4]oxadiazol-2-ylmethyl]-4,4-dimethyl-2-oxo-pyrrolidin-3-yloxy}-2-trifluoromethyl-benzonitrile]
- IC50 (androgen receptor; read-out: IC50): 166 nM
- IC50 (hAR; [1]): 131 nM
